The text below walks through data of patent US6613942B1 (Novo Nordisk A/S, priority 1997, dated 2003).

Chain of rat liver receptor (P30082 27-485): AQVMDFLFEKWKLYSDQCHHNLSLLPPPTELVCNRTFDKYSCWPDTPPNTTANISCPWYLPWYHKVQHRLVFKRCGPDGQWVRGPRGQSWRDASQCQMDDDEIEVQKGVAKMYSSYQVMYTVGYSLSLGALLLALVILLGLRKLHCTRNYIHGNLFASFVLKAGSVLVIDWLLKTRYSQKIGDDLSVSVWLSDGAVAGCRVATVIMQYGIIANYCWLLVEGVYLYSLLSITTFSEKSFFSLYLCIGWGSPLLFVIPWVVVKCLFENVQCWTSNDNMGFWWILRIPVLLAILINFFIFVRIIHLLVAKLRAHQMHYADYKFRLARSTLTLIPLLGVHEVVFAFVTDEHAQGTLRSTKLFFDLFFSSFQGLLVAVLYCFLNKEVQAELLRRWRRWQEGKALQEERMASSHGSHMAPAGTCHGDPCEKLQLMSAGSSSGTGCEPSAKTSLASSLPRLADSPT

Tested on in the first data set: not given
Conditions: not given
`CCN(CC)CCN(CCOc1ccc(/C=N/NC(=O)c2ccc(O)c(Cl)c2)c2ccccc12)Cc1ccc(OC(F)(F)F)cc1` [Example 143, 3-Chloro-4-hydroxybenzoic Acid {4-[2-[N′-(2-N,N-Diethylaminoethyl)-N′-(4-trifluoromethoxy-benzylamino)]]ethoxy-1-naphthylmethylene}hydrazide]: the melting point lay within 134 to 136 °C.
Take `COc1cc(OCCN2CCc3ccccc3C2)ccc1/C=N/NC(=O)c1ccc(O)c(N)c1` [Example 792, 3-Amino-4-hydroxybenzoic Acid {4-[2-(1,2,3,4-Tetrahydro-isoquinolin-2-yl)ethoxy]-2-methoxybenzylidene}hydrazide]: the melting point lay within 162 to 164 °C.
The compound `COc1cc(/C=N/NC(=O)c2ccc(O)c(N)c2)cc(OC)c1OCc1ccc(C(C)C)cc1` [Example 793, 3-Amino-4-hydroxybenzoic Acid [4-(4-Isopropylbenzyloxy)-3,5-dimethoxybenzylidene]-hydrazide] gave a melting point of 174 to 175 °C.
With `COc1cc(OCC(=O)NC2CCN(Cc3ccccc3)C2)ccc1/C=N/NC(=O)c1ccc(O)c(N)c1` [Example 794, (R)-2-{4-[(3-Amino-4-hydroxybenzoyl)hydrazonomethyl]-3-methoxyphenoxy}-N-(1-benzylpyrrolidin-3-yl)acetamide], the melting point was 157 to 160 °C.
In the case of `Nc1cc(C(=O)N/N=C/c2ccc(OCC(=O)N[C@@H]3CCN(Cc4ccccc4)C3)c3ccccc23)ccc1O` [Example 795, (R)-2-{4-[(3-Amino-4-hydroxybenzoyl)hydrazonomethyl]naphthyl-1-yloxy}-N-(1-benzylpyrrolidin-3-yl)acetamide], the melting point lay within 187 to 192 °C.
`Nc1cc(C(=O)N/N=C/c2ccc(OCC(=O)N[C@H]3CCN(Cc4ccccc4)C3)c3ccccc23)ccc1O` [Example 797, (S)-2-{4-[(3-Amino-4-hydroxybenzoyl)hydrazonomethyl]naphthyl-1-yloxy}-N-(1-benzylpyrrolidin-3-yl)acetamide] yielded a melting point of 192 to 193 °C.
`COc1cc(NC(=O)COc2ccc(OC(F)(F)F)cc2)ccc1/C=N/NC(=O)c1ccc(O)c(Cl)c1` [Example 804] showed a melting point of 235 to 236.5 °C.
In turn, `COc1cc(NC(=O)c2ccc3ccccc3n2)ccc1/C=N/NC(=O)c1ccc(O)c(Cl)c1` [Example 805, Quinoline-2-carboxylic Acid (4-[(3-Chloro-4-hydroxybenzoyl)hydrazonomethyl]-3-methoxyphenyl}amide] had a melting point of 236 to 238 °C.
Take `COc1cc(/C=N/NC(=O)c2ccc(O)c(Cl)c2)ccc1NC(=O)COc1ccc(OC(F)(F)F)cc1` [Example 806, N-{4-[(3-Chloro-4-hydroxybenzoyl)hydrazonomethyl]-2-methoxyphenyl}-2-(4-trifluoromethoxyphenoy)acetamide]: the melting point was in the range of 216 to 218 °C.
`COc1cc(/C=N/NC(=O)c2ccc(O)c(Cl)c2)ccc1NC(=O)c1ccc2ccccc2n1` [Example 807, Quinoline-2-carboxylic Acid {4-[(3-Chloro-4-hydroxybenzoyl)hydrazonomethyl]-2-methoxyphenyl}amide] yielded a melting point of 159 to 162 °C.
Consider `COc1cc(NC(=O)COc2ccc(Cl)cc2)ccc1/C=N/NC(=O)c1ccc(O)c(Cl)c1` [Example 808, N-(4-[(3-Chloro-4-hydroxybenzoyl)hydrazonomethyl]-3-methoxyphenyl}-2-(4-chlorophenoxy)acetamide], for which the melting point lay within 216 to 218 °C.

A further data set concerns the target rat liver receptor (Rattus norvegicus, UniProt P30082). As to conditions: literature, Bioorganic and Medicinal Chemistry Letters 2(9):915-918; cited from earlier work.
On to `CN(C)CCCN(C)c1nc2cc(Cl)c(Cl)cc2nc1C=Cc1ccccc1` [(2-styryl-3-[3-(dimethylamino)propylmethyl-amino]-6,7-dichloroquinoxaline], for which the “displacement of glucagon from the rat liver receptor” value is listed as “displace glucagon from the rat liver receptor”.
